Test results taken from patent publication US20060104903A1, “Model for evaluating the efficacy of locally applied antiproliferatives or other agents on neointimal hyperplasia, immunohistochemical and vascular cell cycle changes in balloon-injured rat carotid arteries” (priority 2004, published 2006).

How the values were obtained:
Assay type in all cases: in vivo
[1] = system: balloon-injured rat carotid artery; test: Cell proliferation in injured rat carotid artery, PCNA immunohistochemistry; details: 200 μg in pluronic gel suspension, perivascular, seven days post injury
Protocol: (§1) The delivery vehicle may comprise any suitable device. In the exemplary embodiment, the delivery vehicle comprises silastic tubing as illustrated in FIG. 1. The silastic tubing 300 is about 10 mm long with an outside diameter of about 1.5 mm. The total luminal volume, based upon emperical measurement, is about 20 μL. It is important to note that the silastic tubing 300 may comprise any suitable length. The length of the tubing is determined by the amount of artery resected. The silastic tubing may comprise a notch 302 on one end to facilitate placement thereof over the carotid artery. The silastic tubing is then autoclaved prior to surgery. The silastic tubing is filled with about 20 μL of the pluronic gel comprising a suspension, solution or combination suspension and solution of test agent. The pluronic gel formulation to be encased within the silastic tubing is dispersed into the silastic tubing utilizing a 20 μL adjustable pipette with a sterile tip. The pluronic vehicle or pluronic drug solution remains on ice until immediately before pipetting and dispensing into the silastic tubing.
(§2) The next step in the process comprises the surgical procedure. The rat is anesthetized prior to surgical intervention. The rat may be anesthetized utilizing any number of anesthetizing agents, both inhalational and/or injectable. […]

[2] = system: balloon-injured rat carotid artery; test: Vascular wall cell cycle and apoptotic nuclei in injured rat carotid artery, flow cytometry (propidium iodide); details: 200 μg in pluronic gel suspension, perivascular, seven days post injury
Protocol: as §1, §2

[3] = system: balloon-injured rat carotid artery; test: Neointimal hyperplasia in balloon-injured rat carotid artery, histomorphometric analysis after perivascular delivery
Protocol: as §1, §2

Structure (SMILES) | neointimal proliferation (PCNA labeling) [1] | percentage nuclei in the G0/G1 phases [2] | total percentage of apoptotic cells in the injured vessel wall [2] | neointima formation (FIG. 3 slides) ([3]; 200 μg in pluronic gel, perivascular administration) | neointimal formation (FIG. 2) ([3]; perivascular application)
CC(=O)O[C@H]1C(=O)[C@@]2(C)[C@H]([C@H](OC(=O)c3ccccc3)[C@]3(O)C[C@H](OC(=O)[C@H](O)[C@@H](NC(=O)c4ccccc4)c4ccccc4)C(C)=C1C3(C)C)[C@]1(OC(C)=O)CO[C@@H]1C[C@@H]2O [paclitaxel] | significantly reduce | increases | increase | substantial-reduction | significantly reduced
CC[C@@]1(O)C(=O)OCc2c1cc1n(c2=O)Cc2cc3c(CN(C)C)c(O)ccc3nc2-1 [Topotecan] | substantially no effect |  |  |  | 
